Test results from BindingDB's records for doi:10.1002/cbic.201200272 (Yonsei University, 2012).

target: T1, Pancreatic alpha-amylase (Sus scrofa, UniProt P00690); assay: Enzymatic Activity Assay; conditions: pH 7; 37 °C
T1 sequence (P00690 whole entry): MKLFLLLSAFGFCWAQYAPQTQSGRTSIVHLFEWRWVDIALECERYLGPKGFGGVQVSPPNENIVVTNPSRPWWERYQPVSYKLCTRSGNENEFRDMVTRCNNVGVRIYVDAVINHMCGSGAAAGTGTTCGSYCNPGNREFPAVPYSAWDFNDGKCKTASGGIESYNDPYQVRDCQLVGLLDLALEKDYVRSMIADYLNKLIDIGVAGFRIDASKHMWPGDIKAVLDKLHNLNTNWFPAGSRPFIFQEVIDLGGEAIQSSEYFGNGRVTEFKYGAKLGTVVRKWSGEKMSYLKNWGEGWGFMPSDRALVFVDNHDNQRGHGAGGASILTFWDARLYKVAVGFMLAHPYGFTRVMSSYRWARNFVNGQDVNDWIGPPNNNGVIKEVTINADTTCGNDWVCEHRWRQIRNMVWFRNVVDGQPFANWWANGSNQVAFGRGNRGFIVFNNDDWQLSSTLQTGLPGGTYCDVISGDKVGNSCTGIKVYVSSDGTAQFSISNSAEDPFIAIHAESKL
From the text: To test whether GCTs share a common binding pocket on PPA with acarbose, we performed an experiment according to the method of Yonetani and Theorell.

Row | IC50 [µM] | Ki [µM] | SMILES
1 | 361 | 780 | CO[C@@H]1O[C@H](Cn2cc(-c3ccccc3)nn2)[C@@H]2OC(C)(C)OC12 (some centres not stated) [GPESB01]
2 | 150 | 342 | CO[C@@H]1O[C@H](Cn2cc(C3=CCCCC3)nn2)[C@@H]2OC(C)(C)OC12 (some centres not stated) [GPESB02]

The next lines start with the compound.

Row | SMILES | IC50 [µM] | Ki [µM]
3 | CO[C@@H]1O[C@H](Cn2cc(C3(O)CCCCC3)nn2)[C@@H]2OC(C)(C)OC12 (some centres not stated) [GPESB07] | 356 | 1010
4 | CO[C@@H]1O[C@H](Cn2cc(COC(C)=O)nn2)[C@@H]2OC(C)(C)OC12 (some centres not stated) [GPESB11] | 125 | 234
5 | OC1[C@H](O)O[C@H](Cn2cc(-c3ccccc3)nn2)[C@@H]1O (some centres not stated) [GPESB14] | 88.9 | 204
6 | OC1[C@H](O)O[C@H](Cn2cc(C3=CCCCC3)nn2)[C@@H]1O (some centres not stated) [GPESB15] | 35.8 | 33.6
